Assay results: patent US4767749A, “Ester of (triarylphosphoranylidene)carbamic acid having diuretic and ability to lower plasma renin properties” (American Cyanamid Company, priority 1986, dated 1988)
Structures can show the parent of a compound that is named as a salt.

Tested on: spontaneously hypertensive rats (SHR)
Experiment: Diuretic activity in spontaneously hypertensive rats
Format: in vivo, male spontaneously hypertensive rats (Okamoto strain)
Details: 100 mg/kg by gavage with 0.9% sodium chloride loading 25 ml/kg; 0-5 hour urine
Procedure: The diuretic activity of the compounds of this invention was also determined according to the method of Chan, P. S. and Poorvin, D., Sequential method for combined screening antihypertensive and diuretic agents in the same spontaneously hypertensive rat. Clinical and Experimental Hypertension, 1(6), 817-830 (1979).
Male spontaneously hypertensive rats (SHR) of Okamoto strain, 16 weeks old, Taconic Farms Inc. were used in the test. These rats were kept on Purina laboratory chow and tap water ad libitum for 8 weeks before use. One male adult rat (about 300 g) was dosed by gavage with a test compound at 100 mg/kg together with 0.9% sodium chloride loading at 25 ml/kg at zero hour. The test compound was suspended in 3% preboiled starch at 50 mg/ml. The rat was put in a metabolism cage. The 0-5 hour urine was collected and urinary sodium and potassium were determined using a Beckman Astra 4. The effects of representative compounds of the invention according to this test appear in Table III expressed in milliequivalents (mEQ) of urinary sodium and potassium excreted.

| Structure (SMILES) | Potassium (urinary excretion) | Sodium (urinary excretion) | Volume (urine) |
| --- | --- | --- | --- |
| O=C(N=P(c1ccccc1)(c1ccccc1)c1ccccc1Cl)OC1CCOC1 (stereo not drawn) [[(2-chlorophenyl)diphenylphosphoranylidene]carbamic acid, tetrahydro-3-furanyl ester] | 0.68 mEQ/5 Hours | 1.90 mEQ/5 Hours | 20.0 mL |
| CCOC(=O)N=P(c1ccccc1)(c1ccccc1)c1c(C)cccc1C [[[(2,6-dimethylphenyl)diphenyl]phosphoranylidene]carbamic acid, ethyl ester] | 0.86 mEQ/5 Hours | 1.48 mEQ/5 Hours | 13.0 mL |
| COC1CCCCC1OC(=O)N=P(c1ccccc1)(c1ccccc1)c1ccccc1 (stereo not drawn) [(triphenylphosphoranylidene)carbamic acid, cis- and trans-2-methoxycyclohexyl ester] | 0.59 mEQ/5 Hours | 1.15 mEQ/5 Hours | 11.3 mL |
| COC(=O)N=P(c1ccccc1)(c1ccccc1)c1ccccc1C [[(2-methylphenyl)diphenylphosphoranylidene]carbamic acid, methyl ester] | 0.88 mEQ/5 Hours | 1.95 mEQ/5 Hours | 18.3 mL |
| O=C(N=P(c1ccccc1)(c1ccccc1)c1ccccc1)OCC1CC1 [(Triphenylphosphoranylidene)carbamic acid, cyclopropylmethyl ester] | 0.57 mEQ/5 Hours | 2.00 mEQ/5 Hours | 19.5 mL |
| O=C(N=P(c1ccccc1)(c1ccccc1)c1ccccc1)OCc1ccncc1 [(triphenylphosphoranylidene)carbamic acid, 4-pyridinylmethyl ester] | 0.70 mEQ/5 Hours | 1.50 mEQ/5 Hours | 16.5 mL |
| O=C(N=P(c1ccccc1)(c1ccccc1)c1ccccc1)OC1C=CCC1 (stereo not drawn) [(triphenylphosphoranylidene)carbamic acid, 2-cyclopenten-1-yl ester] | 0.83 mEQ/5 Hours | 1.58 mEQ/5 Hours | 15.5 mL |
| O=C(N=P(c1ccccc1)(c1ccccc1)c1ccccc1)OCC1CCC1 [(Triphenylphosphoranylidene)carbamic acid, cyclobutylmethyl ester] | 0.60 mEQ/5 Hours | 1.47 mEQ/5 Hours | 14.5 mL |
| CCOC(=O)N=P(c1ccccc1)(c1ccccc1)c1ccccc1CC [[(2-ethylphenyl)diphenylphosphoranylidene]carbamic acid, ethyl ester] | 0.78 mEQ/5 Hours | 2.07 mEQ/5 Hours | 19.0 mL |
| CCOC(=O)N=P(c1ccccc1)(c1ccccc1)c1ccccc1C(C)C [[[2-(1-Methylethyl)phenyl]diphenylphosphoranylidene]carbamic acid, ethyl ester] | 0.83 mEQ/5 Hours | 2.08 mEQ/5 Hours | 18.8 mL |
| CCOC(=O)N=P(c1ccccc1)(c1ccccc1Cl)c1ccccc1Cl [[bis(2-chlorophenyl)phenylphosphoranylidene]carbamic acid, ethyl ester] | 0.38 mEQ/5 Hours | 2.40 mEQ/5 Hours | 22.3 mL |
| CCOC(=O)N=P(c1ccccc1)(c1ccccc1)c1cccc(F)c1 [[[(3-fluorophenyl)diphenylphosphoranylidene]carbamic acid, ethyl ester] | 0.62 mEQ/5 Hours | 2.44 mEQ/5 Hours | 24.0 mL |
| Cc1ccccc1P(=N)(c1ccccc1)c1ccccc1 [(2-Methylphenyl)diphenylphosphinimide sulfate] | 0.68 mEQ/5 Hours | 1.88 mEQ/5 Hours | 16.3 mL |
| CCO[C@@H]1CCC[C@H]1OC(=O)N=P(c1ccccc1)(c1ccccc1)c1ccccc1 (relative stereo) [(triphenylphosphoranylidene)carbamic acid, trans-2-ethoxycyclopentyl ester] | 0.73 mEQ/5 Hours | 1.38 mEQ/5 Hours | 13.3 mL |
| CCOC(=O)N=P(c1ccccc1)(c1ccccc1)c1cccc(Cl)c1 [[(3-chlorophenyl)diphenylphosphoranylidene]carbamic acid, ethyl ester] | 0.64 mEQ/5 Hours | 2.32 mEQ/5 Hours | 23.8 mL |
| CO[C@@H]1CCCC[C@H]1OC(=O)N=P(c1ccccc1)(c1ccccc1)c1ccccc1 (relative stereo) [(triphenylphosphoranylidene)carbamic acid, trans-2-methoxycyclohexyl ester] | 0.67 mEQ/5 Hours | 1.45 mEQ/5 Hours | 12.8 mL |
| COC(=O)N=P(c1ccccc1)(c1ccccc1C)c1ccccc1C [[Bis(2-methylphenyl)phenylphosphoranylidene]carbamic acid, methyl ester] | 0.76 mEQ/5 Hours | 1.45 mEQ/5 Hours | 13.5 mL |
| CC1(OC(=O)N=P(c2ccccc2)(c2ccccc2)c2ccccc2)CCCC1 [(Triphenylphosphoranylidene)carbamic acid, 1-methylcyclopentyl ester] | 0.86 mEQ/5 Hours | 1.49 mEQ/5 Hours | 14.8 mL |
| O=C(N=P(c1ccccc1)(c1ccccc1)c1ccccc1)OC1CCOCC1 [(triphenylphosphoranylidene)carbamic acid, tetrahydro-2 --H--pyran-4-yl ester] | 0.64 mEQ/5 Hours | 1.60 mEQ/5 Hours | 15.3 mL |
| COC(=O)N=P(c1ccccc1)(c1ccccc1)c1cccc(Cl)c1 [[(3-chlorophenyl)diphenylphosphoranylidene]carbamic acid, methyl ester] | 0.60 mEQ/5 Hours | 2.45 mEQ/5 Hours | 23.0 mL |
| N=P(c1ccccc1)(c1ccccc1)c1ccccc1 [Triphenylphosphinimide sulfate] | 0.65 mEQ/5 Hours | 1.25 mEQ/5 Hours | 12.0 mL |
| Cc1ccccc1P(=N)(c1ccccc1)c1ccccc1C [[Bis(2-methylphenyl)phenyl]phosphinimide sulfate] | 0.88 mEQ/5 Hours | 1.44 mEQ/5 Hours | 13.0 mL |
| C#CCOC(=O)N=P(c1ccccc1)(c1ccccc1)c1ccccc1 [(triphenylphosphoranylidene)carbamic acid, 2-propynyl ester] | 0.58 mEQ/5 Hours | 1.76 mEQ/5 Hours | 15.5 mL |
| CC(=O)CCCOC(=O)N=P(c1ccccc1)(c1ccccc1)c1ccccc1 [(triphenylphosphoranylidene)carbamic acid, 4-oxo-pentan-1-yl ester] | 0.58 mEQ/5 Hours | 1.16 mEQ/5 Hours | 13.3 mL |
| C[C@@H]1CCC[C@H]1OC(=O)N=P(c1ccccc1)(c1ccccc1)c1ccccc1 (relative stereo) [(triphenylphosphoranylidene)carbamic acid, trans-2-methylcyclopentyl ester] | 0.68 mEQ/5 Hours | 1.55 mEQ/5 Hours | 14.3 mL |
| CCOC(=O)N=P(c1ccccc1)(c1ccccc1)c1ccccc1Br [[(2-bromophenyl)diphenylphosphoranylidene]carbamic acid, ethyl ester] | 0.68 mEQ/5 Hours | 2.51 mEQ/5 Hours | 22.5 mL |
| CCOC(=O)N=P(c1ccccc1)(c1ccccc1)c1ccccc1F [[Diphenyl(2-fluorophenyl)phosphoranylidene]carbamic acid, ethyl ester] | 0.66 mEQ/5 Hours | 2.01 mEQ/5 Hours | 19.8 mL |
